Experimental data from PMC10570016, “Domain collapse and active site ablation generate a widespread animal mitochondrial seryl-tRNA synthetase” (Nucleic Acids Research, 2023).

Target: T1, DmSLIMP/DmSerRS2α (Drosophila melanogaster, UniProt Q9VF85)
T1 construct: gene SerRS-m; co-expressed in E. coli BL21(DE3) from bicistronic pOPINFS; C-terminal 6His on DmSerRS2α, C-terminal Strep II on DmSLIMP; heterodimer; HisTrap; with Seryl-tRNA synthetase-like insect mitochondrial protein
T1 sequence (Q9VF85 22-417): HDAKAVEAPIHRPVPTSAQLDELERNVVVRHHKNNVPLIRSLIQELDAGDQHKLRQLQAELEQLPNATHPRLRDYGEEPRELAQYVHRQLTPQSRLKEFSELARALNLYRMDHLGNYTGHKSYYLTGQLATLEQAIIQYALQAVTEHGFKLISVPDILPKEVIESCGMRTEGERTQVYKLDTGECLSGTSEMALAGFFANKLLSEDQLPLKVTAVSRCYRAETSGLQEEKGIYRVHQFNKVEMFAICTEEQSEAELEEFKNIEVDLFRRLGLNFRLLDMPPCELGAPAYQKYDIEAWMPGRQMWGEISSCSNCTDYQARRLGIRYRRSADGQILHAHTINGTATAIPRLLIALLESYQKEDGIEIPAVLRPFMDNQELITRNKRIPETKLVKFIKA
T1 sequence (Q95T19 1-464 partner): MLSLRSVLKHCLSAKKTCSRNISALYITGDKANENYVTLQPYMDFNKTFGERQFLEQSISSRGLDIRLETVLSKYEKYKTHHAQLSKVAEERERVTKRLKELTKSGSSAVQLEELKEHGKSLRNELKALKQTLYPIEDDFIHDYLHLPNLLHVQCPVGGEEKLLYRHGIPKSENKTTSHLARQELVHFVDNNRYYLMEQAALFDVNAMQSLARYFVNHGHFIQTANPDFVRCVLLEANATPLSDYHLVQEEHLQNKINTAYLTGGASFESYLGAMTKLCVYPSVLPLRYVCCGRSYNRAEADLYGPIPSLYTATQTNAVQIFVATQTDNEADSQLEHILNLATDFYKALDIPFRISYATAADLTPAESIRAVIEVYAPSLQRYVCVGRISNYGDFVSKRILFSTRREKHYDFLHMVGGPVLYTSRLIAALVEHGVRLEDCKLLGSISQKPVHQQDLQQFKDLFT
Assay: radiometric tRNA aminoacylation, scintillation counting
Assay type: biochemical
Conditions: co-substrates ATP and in vitro transcribed Drosophila mt-tRNA-Ser(GCU); Mg2+; labelled compound; pH 7.2, 25 °C (mutant SerRS and tRNA assays pH 7.5)

N[C@@H](CO)C(=O)O [serine]
radiometric tRNA aminoacylation, scintillation counting: In all cases the aminoacylation activity of DmSLIMP/DmSerRS2α was not affected by the presence of the LON domain
